Measurements: article PMC10587126, “Molecular hybridization strategy for tuning bioactive peptide function” (Communications Biology, 2023)
Like-named read-outs stand apart in the source and are kept apart here. No end group written: not given here.

What was measured:
[1] = Resistance to proteolytic degradation in fetal bovine serum; type: in vitro ADME; conditions: 25% fetal bovine serum in water, 37 °C
Method: Stability assays were performed following the protocol described by Torres et al.[67]. Briefly, a peptide solution was added to GIBCO fetal bovine serum diluted to 25% in water and kept at 37 °C. The degradation kinetics were monitored by liquid chromatography and the percentage of peptide remaining in each case was calculated by integrating the peptide peak area. These experiments were performed as three independent replicates, and aliquots were taken at 0, 0.5, 1, 2, 4, and 6 h.

human erythrocytes [2] = test: Hemolytic activity; type: cell-based; conditions: 0.1–100 μmol L^−1 in PBS, room temperature, 1 h, absorbance 405 nm
Method: Assays against freshly collected human erythrocytes were performed following protocols described by Pedron et al.[54]. Briefly, peptide aliquots at concentrations ranging from 0.1 to 100 μmol L^−1 were incubated with a suspension of erythrocytes at room temperature for 1 h. The samples were then centrifuged, and the absorbance of the supernatant was measured at 405 nm. […] The surfactant SDS and PBS buffer were used as positive[81],[82] and negative controls, respectively. Sodium heparin was used as an anticoagulant when collecting human blood. Three biological repeats were performed. All experiments were performed in accordance with the protocol CEUA/IB #I-1345/15 approved by the Instituto Butantan.

human erythrocytes [3] = conditions: at 100 µmol L^−1; cited from earlier work
Description: These observations are consistent with our results for PV, which incorporated protonectin’s hydrophobic face (Fig. 2) displaying increased antimicrobial activity than VP (Fig. 3). Additi ...

[4] = Mouse body weight in the skin abscess infection model; type: in vivo
Method: The anti-infective activity of the peptides VmCT1, temporin A, VT, and TV against A. baumannii ATCC 19606 was evaluated as described by Torres et al.[7],[83] Bacteria were grown in tryptic soy broth medium to an optical density of 0.5 at 600 nm. Cells were washed twice with sterile phosphate-buffered saline (pH 7.4, 13,000 rpm for 1 min) and resuspended to a final concentration of 1 × 10^7 CFU/20 μL. To generate the skin infection, female CD-1 mice (6-weeks-old) were first anesthetized with isoflurane and their backs were shaved. Using a needle, a superficial linear abrasion was made on the shaved area of the mice to injure just the stratum corneum and the upper layer of the epidermis. An aliquot of 20 μL containing 1 × 10^7 CFU of A. baumannii was then inoculated over the wound area with a pipette tip. The next day, the infected area was treated with the peptides (i.e., VmCT1, temporin A, VT, and TV), which were administered onto the abscess at their MIC. The animals were euthanized, and the scarified skin area removed 2- and 4-days post-infection. The excised area was homogenized using a bead beater for 20 min (25 Hz) and serially diluted for CFU quantification. Eight mice were used per group (n = 8). All experiments were performed in accordance with protocol 806763 approved by the IACUC at the University of Pennsylvania.

[5] = Skin tissue histopathological analysis (H&E); type: in vivo, mouse; conditions: H&E staining, tissue collected 24 h after infection and treatment, three mice per condition
Method: The fur on the back of the mice was removed and the mice were infected and treated as described in the Skin abscess infection mouse model section. After 24 h, mice were euthanized for tissue collection. Samples were pre-fixed in individual cassettes, then transferred to a container filled with 70% ethanol (EtOH) for slicing and staining. Next, the samples were placed on glass slides for microscopy analysis. We collected the tissue from three mice per condition analyzed.

[6] = LC peak area, time 0 = 100, 0.5 h, replicate 3
[7] = LC peak area, time 0 = 100, 1 h, replicate 3
[8] = LC peak area, time 0 = 100, 2 h, replicate 3
[9] = LC peak area, time 0 = 100, 4 h, replicate 1
[10] = LC peak area, time 0 = 100, 4 h, replicate 2
[11] = LC peak area, time 0 = 100, 4 h, replicate 3
[12] = LC peak area, time 0 = 100, 6 h, replicate 1
[13] = LC peak area, time 0 = 100, 6 h, replicate 2
[14] = LC peak area, time 0 = 100, 6 h, replicate 3
[15] = day 0 = 100, Day 1, replicate 1
[16] = day 0 = 100, Day 1, replicate 2
[17] = day 0 = 100, Day 1, replicate 3
[18] = day 0 = 100, Day 2, replicate 1
[19] = day 0 = 100, Day 2, replicate 2
[20] = day 0 = 100, Day 2, replicate 3
[21] = day 0 = 100, Day 3, replicate 1
[22] = day 0 = 100, Day 3, replicate 2
[23] = day 0 = 100, Day 3, replicate 3
[24] = day 0 = 100, Day 4, replicate 1
[25] = day 0 = 100, Day 4, replicate 2
[26] = day 0 = 100, Day 4, replicate 3
[27] = LC peak area, time 0 = 100, 0.5 h, replicate 1
[28] = LC peak area, time 0 = 100, 0.5 h, replicate 2
[29] = LC peak area, time 0 = 100, 1 h, replicate 1
[30] = LC peak area, time 0 = 100, 1 h, replicate 2
[31] = LC peak area, time 0 = 100, 2 h, replicate 1
[32] = LC peak area, time 0 = 100, 2 h, replicate 2

Substance	Peptide remaining [1, 6]	Peptide remaining [1, 7]	Peptide remaining [1, 8]	Peptide remaining [1, 9]	Peptide remaining [1, 10]	Peptide remaining [1, 11]	Peptide remaining [1, 12]	Peptide remaining [1, 13]	Peptide remaining [1, 14]	Hemolytic activity (concentration of peptide needed to kill 10% of red blood cells) (human erythrocytes [2])	Mouse body weight, normalized to the weight at the beginning of the experiment [4, 15]	Mouse body weight, normalized to the weight at the beginning of the experiment [4, 16]	Mouse body weight, normalized to the weight at the beginning of the experiment [4, 17]	Mouse body weight, normalized to the weight at the beginning of the experiment [4, 18]	Mouse body weight, normalized to the weight at the beginning of the experiment [4, 19]	Mouse body weight, normalized to the weight at the beginning of the experiment [4, 20]	Mouse body weight, normalized to the weight at the beginning of the experiment [4, 21]	Mouse body weight, normalized to the weight at the beginning of the experiment [4, 22]	Mouse body weight, normalized to the weight at the beginning of the experiment [4, 23]	Mouse body weight, normalized to the weight at the beginning of the experiment [4, 24]	further results
SLLSLIRKLIT-NH2 [Decoralin, reference compound]	0.0	0.0	0.0	0.0	0.0	0.0	0.0	0.0	0.0	1.6 µmol/L											remaining at 0.5 h ([1]; fetal bovine serum, 25% in water, LC peak area, time 0 = 100, 0.5 h, replicate 1, read-out: Peptide remaining): 71%; remaining at 0.5 h ([1]; fetal bovine serum, 25% in water, LC peak area, time 0 = 100, 0.5 h, replicate 2, read-out: Peptide remaining): 65%; remaining at 1 h ([1]; fetal bovine serum, 25% in water, LC peak area, time 0 = 100, 1 h, replicate 1, read-out: Peptide remaining): 26%; remaining at 1 h ([1]; fetal bovine serum, 25% in water, LC peak area, time 0 = 100, 1 h, replicate 2, read-out: Peptide remaining): 23%; remaining at 2 h ([1]; fetal bovine serum, 25% in water, LC peak area, time 0 = 100, 2 h, replicate 1, read-out: Peptide remaining): 29%; remaining at 2 h ([1]; fetal bovine serum, 25% in water, LC peak area, time 0 = 100, 2 h, replicate 2, read-out: Peptide remaining): 23%; Hemolytic activity (in words) (human erythrocytes [3]): low hemolytic activity
FLGALWNVAKSVF-NH2 [VmCT1, reference compound]	26.5	7.4	11.9	0.0	0.0	0.0	0.0	0.0	0.0		90	100	105	90	95	100	95	100	105	90	Mouse body weight, normalized to the weight at the beginning of the experiment [4, 25]: 100; Mouse body weight, normalized to the weight at the beginning of the experiment [4, 26]: 100; Peptide remaining [1, 27]: 28.5; Peptide remaining [1, 28]: 24.4; Peptide remaining [1, 29]: 6.3; Peptide remaining [1, 30]: 8.5; Peptide remaining [1, 31]: 10.5; Peptide remaining [1, 32]: 13.9; Histopathological effect on skin tissue (in words) [5]: Neither TV nor VmCT1 changed the tissue’s morphology
FLGAIGNVLKSIL-NH2 [TV]	0	0	0	0	0		0	0	0	0.2 µmol/L	90	90	100	90	95	100	90	95	105	85	Mouse body weight, normalized to the weight at the beginning of the experiment [4, 25]: 95; Mouse body weight, normalized to the weight at the beginning of the experiment [4, 26]: 100; Peptide remaining after 30 min ([1]; LC peak area vs time 0, 30 min, three replicates): totally degraded; Peptide remaining [1, 27]: 0; Peptide remaining [1, 28]: 0; Peptide remaining [1, 29]: 0; Peptide remaining [1, 30]: 0; Peptide remaining [1, 31]: 0; Peptide remaining [1, 32]: 0; remaining at 4 h ([1]; fetal bovine serum, 25% in water, LC peak area, time 0 = 100, 4 h, replicate 3, read-out: Peptide remaining): 0%; Histopathological effect on skin tissue (in words) [5]: Neither TV nor VmCT1 changed the tissue’s morphology
